Species on record: Rattus norvegicus
Experiment: Open TG-GATES - Regimen: Single
Format: toxicity, organism-based, Sprague-Dawley
Parameters: regimen Single, gender Male, age 6 weeks
Settings: in vivo, iv, route intravenous injection; for Eos / Fbg / Ht / Lym / MCH / MCHC / MCV / Mono / PT / Plat / RBC / Ret / Bas / Hb / Neu: tissue Blood; for KIDNEY_L / KIDNEY_R / KIDNEY_TOTAL: tissue Kidney; for LIVER: tissue Liver; for ALP / ALT / AST / CRE / DBIL / GLC / K / Na / RALB / TBIL / TC / TG / TP / gamma-GTP / LDH: tissue Plasma
[1] = 3 mg/kg, 3 h, dose level Middle
[2] = 3 mg/kg, 6 h, dose level Middle
[3] = 3 mg/kg, 9 h, dose level Middle
[4] = 3 mg/kg, 24 h, dose level Middle

COc1cccc2c1C(=O)c1c(O)c3c(c(O)c1C2=O)C[C@@](O)(C(=O)CO)C[C@@H]3O[C@H]1C[C@H](N)[C@H](O)[C@H](C)O1 [DOXORUBICIN]
Eos [1]: 0.6% | Fbg [1]: 260.4 mg/dL | Ht [1]: 38% | Lym [1]: 78.6% | MCH [1]: 21.6 pg | MCHC [1]: 34.7% | MCV [1]: 62.4 fL | Mono [1]: 3.8% | PT [1]: 16.2 s | Plat [1]: 113.3 x10_4/uL | RBC [1]: 609.6 x10_4/ul | Ret [1]: 6.7% | KIDNEY_L [1]: 0.9 g | KIDNEY_R [1]: 0.9 g | KIDNEY_TOTAL [1]: 1.8 g | LIVER [1]: 9.4 g | ALP [1]: 1266.2 IU/L | ALT [1]: 43.2 IU/L | AST [1]: 80.2 IU/L | CRE [1]: 0.2 mg/dL | DBIL [1]: 0.002 mg/dL | GLC [1]: 174.2 mg/dL | K [1]: 4.1 meq/L | Na [1]: 141.2 meq/L | RALB [1]: 3 g/dL | TBIL [1]: 0.022 mg/dL | TC [1]: 65.6 mg/dL | TG [1]: 99.4 mg/dL | TP [1]: 5.1 g/dL | gamma-GTP [1]: 1 IU/L | TERMINAL_BW [2]: 208.1 g | Bas [2]: 0% | Eos [2]: 0.8% | Fbg [2]: 294 mg/dL | Ht [2]: 37.7% | Lym [2]: 79% | MCH [2]: 21.7 pg | MCHC [2]: 34.3% | MCV [2]: 63.3 fL | Mono [2]: 4.2% | PT [2]: 16 s | Plat [2]: 130.3 x10_4/uL | RBC [2]: 595.4 x10_4/ul | Ret [2]: 7% | KIDNEY_L [2]: 0.9 g | KIDNEY_R [2]: 0.9 g | KIDNEY_TOTAL [2]: 1.8 g | LIVER [2]: 8.4 g | ALP [2]: 1404.2 IU/L | AST [2]: 77.2 IU/L | CRE [2]: 0.1 mg/dL | DBIL [2]: 0.002 mg/dL | GLC [2]: 177 mg/dL | K [2]: 4 meq/L | LDH [2]: 128.2 IU/L | Na [2]: 140.6 meq/L | RALB [2]: 2.9 g/dL | TBIL [2]: 0.032 mg/dL | TC [2]: 73.2 mg/dL | TG [2]: 59.6 mg/dL | TP [2]: 5.1 g/dL | gamma-GTP [2]: 1.8 IU/L | TERMINAL_BW [3]: 210 g | Bas [3]: 0% | Eos [3]: 0.6% | Fbg [3]: 280.6 mg/dL | Hb [3]: 13 g/dL | Ht [3]: 38.2% | Lym [3]: 76% | MCH [3]: 21.1 pg | MCHC [3]: 34.2% | MCV [3]: 61.8 fL | Mono [3]: 4.2% | Neu [3]: 18% | PT [3]: 15.8 s | Plat [3]: 117 x10_4/uL | RBC [3]: 617.6 x10_4/ul | Ret [3]: 6.9% | KIDNEY_L [3]: 0.9 g | KIDNEY_R [3]: 0.9 g | KIDNEY_TOTAL [3]: 1.8 g | LIVER [3]: 8.1 g | ALP [3]: 1233.4 IU/L | ALT [3]: 33.2 IU/L | AST [3]: 69.2 IU/L | CRE [3]: 0.1 mg/dL | DBIL [3]: 0 mg/dL | GLC [3]: 186.8 mg/dL | K [3]: 4.3 meq/L | Na [3]: 140.6 meq/L | RALB [3]: 2.8 g/dL | TBIL [3]: 0.018 mg/dL | TC [3]: 71 mg/dL | TG [3]: 70.2 mg/dL | TP [3]: 5.1 g/dL | gamma-GTP [3]: 1.2 IU/L | TERMINAL_BW [4]: 215.4 g | Bas [4]: 0% | Eos [4]: 0.2% | Fbg [4]: 277.8 mg/dL | Hb [4]: 13.4 g/dL | Ht [4]: 37.4% | Lym [4]: 80.8% | MCH [4]: 21.6 pg | MCHC [4]: 35.7% | MCV [4]: 60.4 fL | Mono [4]: 4% | Neu [4]: 13.2% | PT [4]: 16.6 s | Plat [4]: 118.9 x10_4/uL | RBC [4]: 620 x10_4/ul | Ret [4]: 4.5% | KIDNEY_L [4]: 0.9 g | KIDNEY_R [4]: 0.9 g | KIDNEY_TOTAL [4]: 1.9 g | ALP [4]: 1504.4 IU/L | AST [4]: 68.2 IU/L | CRE [4]: 0.2 mg/dL | DBIL [4]: 0.002 mg/dL | GLC [4]: 191.4 mg/dL | K [4]: 4.5 meq/L | LDH [4]: 124.6 IU/L | Na [4]: 143 meq/L | RALB [4]: 3 g/dL | TBIL [4]: 0.018 mg/dL | TC [4]: 75 mg/dL | TG [4]: 88.6 mg/dL | TP [4]: 5.2 g/dL | gamma-GTP [4]: 1 IU/L | TERMINAL_BW (10 mg/kg, 3 h, dose level High): 211.4 g | Bas (10 mg/kg, 3 h, dose level High): 0%
